One assay has as its target HCoV-NL63 M^pro (Human coronavirus NL63, UniProt P0C6X5). The assay is described as follows: FRET peptide cleavage assay. The format is biochemical.
The target of assay [1] is T1, CVB3 3C^pro (Coxsackievirus B3, UniProt Q5UEA2). The assay is described as follows: FRET peptide cleavage assay. The format is biochemical.
The next assay concerns the target EV-A71 3C^pro (Human enterovirus 71 (strain BRCR), UniProt Q66478). As to conditions: read-out: EV-A71 3Cpro; inhibitor.
Assay [2] concerns the target T1, CVB3 3C^pro. The assay is described as follows: biochemical.
Another assay concerns EV-A71. The assay is described as follows: microbe, parasite or virus in culture. Details: species or system Huh-T7. As to conditions: Enterovirus A, EVA71, read-out: EV-A71 replicon *.
The subject of a further assay is CVB3 (Nancy). The assay is described as follows: microbe, parasite or virus in culture. More on the design: species or system Huh-T7. Particulars: Enterovirus B, CVB3, read-out: CVB3 replicon *.

Sequence of EV-A71 3C^pro (Q66478 1549-1731): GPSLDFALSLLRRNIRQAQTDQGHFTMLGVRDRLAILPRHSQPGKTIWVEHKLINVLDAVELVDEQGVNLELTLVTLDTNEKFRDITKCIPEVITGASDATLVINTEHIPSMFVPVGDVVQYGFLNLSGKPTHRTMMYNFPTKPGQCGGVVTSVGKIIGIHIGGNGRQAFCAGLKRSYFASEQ
Sequence of HCoV-NL63 M^pro (P0C6X5 2940-3242): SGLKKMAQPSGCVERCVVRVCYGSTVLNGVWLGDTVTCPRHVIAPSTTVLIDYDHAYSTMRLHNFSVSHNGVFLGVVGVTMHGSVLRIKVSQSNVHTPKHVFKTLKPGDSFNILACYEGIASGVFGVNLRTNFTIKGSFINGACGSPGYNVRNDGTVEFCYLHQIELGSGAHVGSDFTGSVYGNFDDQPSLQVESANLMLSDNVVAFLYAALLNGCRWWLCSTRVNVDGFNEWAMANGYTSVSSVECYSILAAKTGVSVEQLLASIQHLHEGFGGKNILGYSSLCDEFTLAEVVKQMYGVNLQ

On to `O=C(/C=C/c1ccccc1)N[C@@H](Cc1ccccc1)C(=O)N[C@@H](C[C@@H]1CCNC1=O)C(=O)C(=O)NCc1ccccc1` [11a, (S)-N-benzyl-3-((S)-2-cinnamamido-3-phenylpropanamido)-2-oxo-4-((S)-2-oxopyrrolidin-3-yl)butanamide], for which the IC50 against HCoV-NL63 M^pro was greater than 50 µM; on CVB3 3C^pro [1], 6.56 ± 3.1 µM.
Turning to `CCCCNC(=O)C(=O)[C@H](C[C@@H]1CCNC1=O)NC(=O)[C@H](Cc1ccccc1)NC(=O)/C=C/c1ccccc1` [11b], the IC50 at EV-A71 3C^pro stood at 2.38 ± 0.58 µM; against CVB3 3C^pro [2], 1 ± 0.35 µM.
With `CC(C)(C)NC(=O)C(=O)[C@H](C[C@@H]1CCNC1=O)NC(=O)[C@H](Cc1ccccc1)NC(=O)/C=C/c1ccccc1` [11c], the IC50 was found to be 19 ± 5.79 µM on EV-A71 3C^pro and 9.86 ± 2.68 µM at CVB3 3C^pro [2].
In the case of `CC(C)CNC(=O)C(=O)[C@H](C[C@@H]1CCNC1=O)NC(=O)[C@H](CC(C)C)NC(=O)/C=C/c1ccccc1` [11d], the IC50 on EV-A71 3C^pro turned out to be 17.7 ± 8.78 µM; against CVB3 3C^pro [2] it was 6.5 ± 0.58 µM.
For `COC(=O)CNC(=O)C(=O)[C@H](C[C@@H]1CCNC1=O)NC(=O)[C@H](Cc1ccccc1)NC(=O)/C=C/c1ccccc1` [11e], the values for the IC50 at EV-A71 3C^pro and at CVB3 3C^pro [2] were 11.1 ± 2.64 µM and 9.91 ± 1.84 µM, respectively.
With `CC(C)(C)OC(=O)N[C@@H](C[C@@H]1CCNC1=O)C(=O)C(=O)NCc1ccccc1` [11f, tert-Butyl ((S)-4-(benzylamino)-3,4-dioxo-1-((S)-2-oxopyrrolidin-3-yl)butan-2-yl)carbamate], the IC50 against HCoV-NL63 M^pro and on CVB3 3C^pro [1] was greater than 50 µM each time.
For the compound `O=C(CCc1ccccc1)N[C@@H](Cc1ccccc1)C(=O)N[C@@H](C[C@@H]1CCNC1=O)C(=O)C(=O)NCc1ccccc1` [11g], the values for the IC50 at EV-A71 3C^pro and against CVB3 3C^pro [2] were 4.57 ± 1.04 µM and 3.5 ± 1.06 µM, respectively.
Regarding `O=C(NCc1ccccc1)C(=O)[C@H](C[C@@H]1CCNC1=O)NC(=O)[C@H](Cc1ccccc1)NC(=O)c1ccc2c(c1)OCCO2` [11h], the IC50 on EV-A71 3C^pro was 4.75 ± 2.73 µM; at CVB3 3C^pro [2], 3.66 ± 0.79 µM.
The like results for `O=C(NCc1ccccc1)C(=O)[C@H](C[C@@H]1CCNC1=O)NC(=O)[C@H](Cc1ccccc1)NC(=O)c1cccc2c1OCCO2` [11i] were, in that order, 9.74 ± 3.88 µM and 4.82 ± 1.17 µM.
As for `O=C(NCc1ccccc1)C(=O)[C@H](C[C@@H]1CCNC1=O)NC(=O)[C@H](Cc1ccccc1)NC(=O)c1cc2ccccc2o1` [11j], the figures for the IC50 on EV-A71 3C^pro and against CVB3 3C^pro [2] were 11.3 ± 6.52 µM and 9.19 ± 2.99 µM, respectively.
With `O=C(NCc1ccccc1)C(=O)[C@H](C[C@@H]1CCNC1=O)NC(=O)[C@H](Cc1ccccc1)NC(=O)c1cc2ccccc2s1` [11k], the IC50 at EV-A71 3C^pro was greater than 50 µM; at CVB3 3C^pro [2], 18.6 ± 0.58 µM.
Take `O=C(NCc1ccccc1)C(=O)[C@H](C[C@@H]1CCNC1=O)NC(=O)[C@H](Cc1ccccc1)NC(=O)c1cn2cc(Br)ccc2n1` [11l]: the IC50 at EV-A71 3C^pro was greater than 50 µM; at CVB3 3C^pro [2], 30.8 ± 12.9 µM.
As for `O=C(/C=C/c1ccccc1)N[C@@H](Cc1ccc(F)cc1)C(=O)N[C@@H](C[C@@H]1CCNC1=O)C(=O)C(=O)NCc1ccccc1` [11m, (S)-N-benzyl-3-((S)-2-cinnamamido-3-(4-fluorophenyl)propanamido)-2-oxo-4-((S)-2-oxopyrrolidin-3-yl)butanamide], the IC50 was greater than 50 µM against HCoV-NL63 M^pro and 8.69 ± 1.28 µM at CVB3 3C^pro [1].
On to `CC(C)C[C@H](NC(=O)/C=C/c1ccccc1)C(=O)N[C@@H](C[C@@H]1CCNC1=O)C(=O)C(=O)NCc1ccccc1` [11n, (S)-N-((S)-4-(benzylamino)-3,4-dioxo-1-((S)-2-oxopyrrolidin-3-yl)butan-2-yl)-2-cinnamamido-4-methylpentanamide], for which the IC50 at HCoV-NL63 M^pro was determined as 1.08 ± 0.09 µM; at CVB3 3C^pro [1], 3.82 ± 1.21 µM.
For `CCCC[C@H](NC(=O)/C=C/c1ccccc1)C(=O)N[C@@H](C[C@@H]1CCNC1=O)C(=O)C(=O)NCc1ccccc1` [11o, (S)-N-((S)-4-(benzylamino)-3,4-dioxo-1-((S)-2-oxopyrrolidin-3-yl)butan-2-yl)-2-cinnamamidohexanamide], in that order: greater than 50 µM and 5.2 ± 0.28 µM.
With `C#CC[C@H](NC(=O)/C=C/c1ccccc1)C(=O)N[C@@H](C[C@@H]1CCNC1=O)C(=O)C(=O)NCc1ccccc1` [11p, (S)-N-((S)-4-(benzylamino)-3,4-dioxo-1-((S)-2-oxopyrrolidin-3-yl)butan-2-yl)-2-cinnamamidopent-4-ynamide], the IC50 on HCoV-NL63 M^pro was determined as 17.4 ± 3.97 µM; against CVB3 3C^pro [1], 8.93 ± 2.39 µM.
Take `O=C(/C=C/c1ccccc1)N[C@H](C(=O)N[C@@H](C[C@@H]1CCNC1=O)C(=O)C(=O)NCc1ccccc1)C1CC1` [11q, (S)-N-benzyl-3-((S)-2-cinnamamido-2-cyclopropylacetamido)-2-oxo-4-((S)-2-oxopyrrolidin-3-yl)butanamide]: the IC50 against HCoV-NL63 M^pro turned out to be 11.5 ± 5.05 µM; against CVB3 3C^pro [1], 15.4 ± 4.12 µM.
Regarding `O=C(/C=C/c1ccccc1)N[C@@H](CC1CCCCC1)C(=O)N[C@@H](C[C@@H]1CCNC1=O)C(=O)C(=O)NCc1ccccc1` [11r, (S)-N-benzyl-3-((S)-2-cinnamamido-3-cyclohexylpropanamido)-2-oxo-4-((S)-2-oxopyrrolidin-3-yl)butanamide], the IC50 against HCoV-NL63 M^pro stood at 12.3 ± 3.56 µM; against CVB3 3C^pro [1] it was 0.95 ± 0.15 µM. In addition, the figures for the EC50 in the assay on EV-A71 and in the assay with CVB3 (Nancy) were 850 nM and 450 nM, respectively.
Regarding `O=C(/C=C/c1ccccc1)N[C@@H](CC1CC1)C(=O)N[C@@H](C[C@@H]1CCNC1=O)C(=O)C(=O)NCc1ccccc1` [11s, (S)-N-benzyl-3-((S)-2-cinnamamido-3-cyclopropylpropanamido)-2-oxo-4-((S)-2-oxopyrrolidin-3-yl)butanamide], the IC50 against HCoV-NL63 M^pro was determined as 1.37 ± 0.35 µM; at CVB3 3C^pro [1], 4.25 ± 1.4 µM.
With `O=C(/C=C/c1ccccc1)N[C@@H](CC1CCC1)C(=O)N[C@@H](C[C@@H]1CCNC1=O)C(=O)C(=O)NCc1ccccc1` [11t, (S)-N-benzyl-3-((S)-2-cinnamamido-3-cyclobutylpropanamido)-2-oxo-4-((S)-2-oxopyrrolidin-3-yl)butanamide], the IC50 at HCoV-NL63 M^pro amounted to 3.43 ± 2.45 µM; against CVB3 3C^pro [1], 4.78 ± 1.13 µM. In addition, the EC50 with CVB3 (Nancy) was found to be 2200 nM.
As for `O=C(/C=C/c1ccccc1)N[C@@H](CC1CCCC1)C(=O)N[C@@H](C[C@@H]1CCNC1=O)C(=O)C(=O)NCc1ccccc1` [11u, (S)-N-benzyl-3-((S)-2-cinnamamido-3-cyclopentylpropanamido)-2-oxo-4-((S)-2-oxopyrrolidin-3-yl)butanamide], the IC50 against HCoV-NL63 M^pro was found to be 5.41 ± 2.31 µM; against CVB3 3C^pro [1] it was 1.93 ± 0.43 µM. Further, the EC50 in the assay with EV-A71 was 3650 nM; with CVB3 (Nancy), 4900 nM.
